Where a name gives a salt, the structure may show the parent alone.
Compound	melting point
CCN1CCN(c2nc(C#Cc3ncccc3OCCO)cc3ccccc23)CC1 (as salt: hydrochloride) [Example 188, 1-(1-Ethylpiperazin-4-Yl)-3-[3-(2-Hydroxyethoxy)-2-Pyridyl]Ethynylisoquinoline]	153 to 159 °C
CCN1CCN(c2nc(/C=C/c3ccccc3)cc3ccccc23)CC1 (as salt: hydrochloride) [Example 189, 1-(1-Ethylpiperazin-4-Yl)-3-(Trans-2-Phenylethenyl)Isoquinoline Dihydrochloride]	222 to 225 °C
CCN1CCN(c2nc(/C=C/c3ccc(OC)cc3)cc3ccccc23)CC1 (as salt: hydrochloride) [Example 190, 1-(1-Ethylpiperazin-4-Yl)-3-[Trans-2-(4-Methoxyphenyl)Ethenyl]Isoquinoline Dihydrochloride]	227 °C (dec.)
CCN1CCN(c2nc(/C=C/c3ccc(S(C)(=O)=O)cc3)cc3ccccc23)CC1 (as salt: hydrochloride) [Example 201, 3-[(E)-2-(4-Methylsulfonylphenyl)Ethenyl]-1-(4-Ethylpiperazin-1-Yl)Isoquinoline Hydrochloride]	170 to 174 °C
CCN1CCN(c2nc(/C=C/c3ccccn3)cc3ccccc23)CC1 (as salt: hydrochloride) [Example 209, 1-(1-Ethylpiperazin-4-Yl)-3-[Trans-2-(2-Pyridyl)Ethenyl]Isoquinoline Trihydrochloride]	220 °C (dec.)
CCN1CCN(c2nc(C(=O)Nc3ccccc3)cc3ccccc23)CC1 (as salt: hydrochloride) [Example 218, 1-(ethylpiperazin-4-yl)-N-phenyl-3-isoquinolinecarboxamide dihydrochloride]	260 °C (dec.)
CCN1CCN(c2nc(-c3ccc(OC)cc3)c(OC)c3ccccc23)CC1 (as salt: hydrochloride) [Example 221, 1-(1-ethylpiperazin-4-yl)-4-methoxy-3-(4-methoxyphenyl)isoquinoline dihydrochloride]	227 to 235 °C
CCN1CCN(c2nc(-c3ccc(OCCO)cc3)cc3cc(F)ccc23)CC1 (as salt: hydrochloride) [Example 223, 1-(4-ethylpiperazin-1-yl)-3-[4-(2-hydroxyethoxy)phenyl]-6-fluoroisoquinoline dihydrochloride]	152 to 170 °C
CCN1CCN(c2nc(-c3ccc(OC)cc3)cc3ccc(F)cc23)CC1 (as salt: hydrochloride) [Example 229, 1-(4-ethylpiperazin-1-yl)-7-fluoro-3-(4-methoxyphenyl)isoquinoline dihydrochloride]	220 to 225 °C
CCN1CCN(c2nc(-c3ccc(OC)cc3)cc3cccc(F)c23)CC1 (as salt: hydrochloride) [Example 233, 1-(1-ethylpiperazin-4-yl)-8-fluoro-3-(4-methoxyphenyl)isoquinoline dihydrochloride]	222 to 227 °C
CCN1CCN(c2nc(-c3ccc(OCCO)cc3)cc3cccc(F)c23)CC1 (as salt: hydrochloride) [Example 234, 1-(1-ethylpiperazin-4-yl)-8-fluoro-3-[4-(2-hydroxyethoxy)phenyl]isoquinoline dihydrochloride]	215 to 219 °C
COc1ccc(-c2cc3ccccc3c(N3CCN(C4CC4)CC3)n2)cc1 (as salt: hydrochloride) [Example 239, 1-(1-cyclopropylpiperaziin-4-yl)-3-(4-methoxyphenyl)isoquinoline dihydrochloride]	138 to 143 °C
C=CCN1CCN(c2nc(-c3ccc(OC)cc3)cc3ccccc23)CC1 (as salt: hydrochloride) [Example 240, 1-(1-allylpiperazin-4-yl)-3-(4-methoxyphenyl)isoquinoline dihydrochloride]	111 to 116 °C
COc1ccc(-c2cc3ccccc3c(N3CCN(CCO)CC3)n2)cc1 (as salt: hydrochloride) [Example 242, 1-[4-(2-hydroxyethyl)piperazin-1-yl]-3-(4-methoxyphenyl)isoquinoline Dihydrochloride]	163 to 165 °C

— patent US6875761B2 (Eisai Co., Ltd., priority 1997, dated 2005)
